Among the data in ChEMBL document CHEMBL1148100, “Structure-activity relationships of norditerpenoid alkaloids occurring in toxic larkspur (Delphinium) species” (J Nat Prod, 1995) are LD50 values, retold here.

This data set can be described thus: Toxicity in iv dosed Swiss-Webster mouse. Format: organism-based. As to conditions: in vivo.
Regarding `CCN1C[C@]2(COC(=O)c3ccccc3N3C(=O)CC(C)C3=O)CC[C@H](OC)[C@]34C1[C@](O)([C@@H](OC)[C@H]23)[C@@]1(O)C[C@H](OC)[C@H]2C[C@@H]4[C@@H]1[C@H]2O` (stereo partly drawn), the LD50 (commonly the dose at which mortality reaches 50%) stood at 4 mg/kg.

For `CO[C@H]1[C@@H]2C[C@@H]3[C@H]1[C@](O)(C[C@@H]2OC)[C@]1(O)C2NC[C@]4(COC(=O)c5ccccc5N5C(=O)CC(C)C5=O)CC[C@H](OC)[C@@]23[C@@H]4[C@@H]1OC` (stereo partly drawn), the LD50 came to 100 mg/kg. Compared with the last compound, the LD50 is about 25-fold higher.

Take `CO[C@H]1[C@@H]2C[C@]3(O)[C@H]1[C@@]1(C[C@@H]2OC)OCO[C@]12C1NC[C@]4(C)CC[C@H](OC)[C@@]13[C@@H]4[C@@H]2OC(C)=O`: the LD50 was 210 mg/kg. This LD50 is about 2.1-fold higher than that of the compound before.

For the compound `CO[C@H]1[C@@H]2C[C@@H]3[C@H]1[C@](O)(C[C@@H]2OC)[C@]1(O)C2N=C[C@]4(COC(=O)c5ccccc5N5C(=O)CC(C)C5=O)CC[C@H](OC)[C@@]23[C@@H]4[C@@H]1OC` (stereo partly drawn) [ANHWEIDELPHININE], the LD50 is more than 177 mg/kg.

For `CCN1C[C@]2(COC(=O)c3ccccc3N)CC[C@H](OC)[C@]34C1[C@](O)([C@@H](OC)[C@H]23)[C@@]1(O)C[C@H](OC)[C@H]2C[C@@H]4[C@@H]1[C@H]2OC` [ANTHRANOYLLYCOCTONINE], the LD50 turned out to be 20.8 mg/kg.

`CCN1C[C@]2(COC(=O)c3ccccc3N3C(=O)CC(C)C3=O)CC[C@H](OC)[C@]34C1[C@](O)([C@@H](OC)[C@H]23)[C@@]1(O)C[C@H](OC)[C@H]2C[C@@H]4[C@@H]1C2=O` (stereo partly drawn) [BARBININE] returned an LD50 of 57 mg/kg. Against the preceding compound, the LD50 is about 2.7-fold higher.

Compound `CCN1C[C@]2(C)CC[C@H](OC)[C@@]34C1[C@]1(OCO[C@@]15C[C@H](OC)[C@H]1C[C@]3(O)[C@@H]5[C@H]1OC)[C@@H](OC(C)=O)[C@H]24` [DELTALINE] yielded an LD50 of 200 mg/kg.

Consider `CCN1C[C@]2(C)CC[C@H](OC)[C@@]34C1[C@]1(OCO[C@@]15C[C@H](OC)[C@H]1C[C@]3(O)[C@@H]5[C@H]1O)[C@@H](OC(C)=O)[C@H]24` [DICTYOCARPINE], for which the LD50 was 283 mg/kg.

Compound `CCN1C[C@]2(COC(=O)c3ccccc3N3C(=O)C[C@H](C)C3=O)CC[C@H](OC)[C@@]34C1[C@@]1(OCO[C@@]15C[C@H](OC)[C@H]1C[C@@H]3[C@@H]5[C@H]1OC)[C@@H](OC)[C@H]24` [ELATINE] came in with a 50% lethal dose (LD50) of 9.2 mg/kg.

Take `CCN1C[C@]2(CO)CC[C@H](OC)[C@@]34[C@@H]5C[C@H]6[C@H](OC)[C@@H]5[C@](O)(C[C@@H]6OC)[C@](O)([C@@H](OC)[C@H]23)[C@@H]14` [LYCOCTONINE]: the median lethal dose (LD50) came out at 444 mg/kg. Compared with the last compound, the LD50 is about 48-fold higher.

As for `CCN1C[C@]2(COC(=O)c3ccccc3N3C(=O)C[C@H](C)C3=O)CC[C@H](OC)[C@@]34[C@@H]5C[C@H]6[C@H](OC)[C@@H]5[C@](O)(C[C@@H]6OC)[C@](O)([C@@H](OC)[C@H]23)[C@@H]14` [METHYLLYCACONITINE], the LD50 came to 7.5 mg/kg.

In turn, `CCN1C[C@]2(COC(=O)c3ccccc3N3C(=O)C[C@H](C)C3=O)CC[C@H](OC)[C@]34C5C[C@@H]6[C@@H](OC)C[C@@](O)(C5[C@H]6OC(C)=O)[C@](O)(C13)[C@@H](OC)C24` (stereo partly drawn) [NUDICAULINE] returned an LD50 of 2.7 mg/kg.

`CO[C@H]1[C@@H]2C[C@@H]3[C@H]1[C@](O)(C[C@@H]2OC)[C@]1(O)C2NC(=O)[C@]4(COC(=O)c5ccccc5N5C(=O)CC(C)C5=O)CC[C@H](OC)[C@@]23[C@@H]4[C@@H]1OC` (stereo partly drawn) [ZALILINE] registered an LD50 of more than 230 mg/kg.
